# Results: ChEMBL document CHEMBL6153157, “Novel 3-Aminothieno[2,3-b]pyridine-2-carboxamides with Activity against Mycobacterium tuberculosis” (ACS Med Chem Lett, 2025)
# What was measured:
# [1] = tested on: Mycobacterium tuberculosis; test: Antibacterial activity against wild type Mycobacterium tuberculosis H37Rv-LP DREAM8 strain expressing codon-optimized DsRed assessed growth inhibition incubated for 5 days by fluorescence spectrophotometric assay; type: functional; conditions: H37Rv-LP DREAM8, 120 h, time 5 day
# [2] = Cytotoxicity against human HepG2 cells assessed as cell growth inhibition incubated for 3 days by CellTiter-Glo reagent-based luminescence assay; type: toxicity
# [3] = Selectivity index, ratio of IC50 for cytotoxicity against human HepG2 cells to IC90 for antibacterial activity against wild type Mycobacterium tuberculosis H37Rv-LP DREAM8 strain expressing codon-optimized DsRed; type: toxicity, cell-based
SMILES,IC90 [1] [µM],IC50 at 3 days [2] [µM],selectivity ratio [3]
COc1ccc(-c2cc(C(F)(F)F)c3cc(C(=O)NC(C)c4ccccc4)sc3n2)cc1 (stereo not given),2.5,> 100,
COc1ccc(-c2cc(C(F)(F)F)c3c(N)c(C(=O)Nc4cccc(C)c4C)sc3n2)cc1OC,> 100,42,
COc1ccc(-c2cc(C(F)(F)F)c3c(N)c(C(=O)NC4COC4)sc3n2)cc1,> 100,> 100,
Cc1cccc(NC(=O)c2sc3nc(-c4ccccc4)cc(C(F)(F)F)c3c2N)c1C,> 100,> 100,
COc1ccc(-c2cc(C(F)(F)F)c3c(N)c(C(=O)NC45CC(C4)C5)sc3n2)cc1,> 50,36,< 1
Nc1c(C(=O)N2CCOCC2)sc2nc(-c3ccc(F)cc3)ccc12,> 100,41,
COc1ccc(-c2cc(C(F)(F)F)c3c(N)c(C(=O)Nc4cc(C)cc(C)c4)sc3n2)cc1,> 100,47,< 1
COc1ccc(-c2cc(C(F)(F)F)c3c(N)c(C(=O)N4CCCC4)sc3n2)cc1,> 50,> 50,
COc1ccc(-c2cc(C(F)(F)F)c3c(N)c(C(=O)N4CCCCC4)sc3n2)cc1,> 100,> 100,
Cc1ccc(NC(=O)c2sc3nc(C)cc(C(F)(F)F)c3c2N)cc1,> 100,31,
COc1ccc(-c2cc(C(F)(F)F)c3c(N)c(C(=O)N4CC5(CCOC5)C4)sc3n2)cc1,> 50,33,< 1
COc1ccc(-c2cc(C(F)(F)F)c3c(N)c(C(=O)NCc4cccc(C)c4C)sc3n2)cc1,1.3,50,38
COc1ccc(-c2ccc3c(N)c(C(=O)Nc4cccc(C)c4C)sc3n2)cc1,> 100,> 100,
COC1CN(C(=O)c2sc3ncccc3c2N)C1,> 100,> 100,
COc1ccc(-c2cc(C(F)(F)F)c3c(N)c(C(=O)Nc4c(C)cccc4C)sc3n2)cc1,> 100,> 100,
COc1ccc(-c2cc(C(F)(F)F)c3c(N)c(C(=O)NC(C)c4ccccc4)sc3n2)cc1 (stereo not given),0.63,52,83
CN(C)C(=O)c1sc2ncccc2c1N,> 100,> 100,
COc1ccc(-c2cc(C)c3c(N)c(C(=O)Nc4cccc(C)c4C)sc3n2)cc1,> 100,27,
COc1ccc(-c2cc(C(F)(F)F)c3c(N)c(C(=O)Nc4cccc(C)c4F)sc3n2)cc1,> 100,42,
COc1ccc(-c2cc(C(F)(F)F)c3c(N)c(C(=O)N4CC(F)(F)C4)sc3n2)cc1,> 50,> 50,< 1
Cc1cccc(CNC(=O)c2sc3nc(-c4ccc5c(c4)OCO5)cc(C(F)(F)F)c3c2N)c1C,> 100,44,
Nc1c(C(=O)N2CC(F)(F)C2)sc2ncccc12,> 100,> 100,
COc1ccc(-c2cc(C(F)(F)F)c3c(N)c(C(=O)NC4CCC(c5ccc(C(C)(C)C)cc5)CC4)sc3n2)cc1 (stereo not given),> 10,> 10,
Nc1c(C(=O)NC23CC4CC(CC(C4)C2)C3)sc2nc(-c3ccc4c(c3)OCO4)cc(C(F)(F)F)c12,0.68,81,

SMILES,IC90 [1] [µM],IC50 at 3 days [2] [µM],selectivity ratio [3]
COc1ccc(-c2cc(C(F)(F)F)c3c(N)c(C(=O)NC45CC6CC(CC(C6)C4)C5)sc3n2)cc1,1.1,> 100,< 91
COc1ccc(-c2cc(C(F)(F)F)c3c(N)c(C(=O)Nc4ccccc4)sc3n2)cc1,> 100,> 100,
Cc1ccc(NC(=O)c2sc3nc(-c4ccccc4)cc(C(F)(F)F)c3c2N)cc1,> 100,24,
Cc1cccc(NC(=O)c2sc3nc(-c4ccco4)cc(C(F)(F)F)c3c2N)c1C,> 100,> 100,
COc1ccc(-c2cc(C(F)(F)F)c3c(N)c(C(=O)Nc4cccc(C)c4C)sc3n2)cn1,1.4,31,
COc1ccc(-c2cc(C(F)(F)F)c3c(N)c(C(=O)Nc4ccc(C)cc4C)sc3n2)cc1,> 100,> 100,
COc1ccc(-c2cc(C(F)(F)F)c3c(N)c(C(=O)NC(C)C4CCCCC4)sc3n2)cc1 (stereo not given),1.1,> 100,> 91
COc1ccc(-c2cc(C(F)(F)F)c3c(N)c(C(=O)NCc4ccccc4C)sc3n2)cc1,2.4,23,10
Nc1c(C(=O)N2CCOCC2)sc2nc(-c3cccnc3)ccc12,> 100,> 100,
Cc1ccc(-c2cc(C(F)(F)F)c3c(N)c(C(=O)Nc4cccc(C)c4C)sc3n2)cc1,> 100,60,
COc1ccc(-c2cc(C(F)(F)F)c3c(N)c(C(=O)N4CCCC4(C)C)sc3n2)cc1,> 100,78,< 1
Nc1c(C(=O)NCc2ccc(F)cc2)sc2nc(-c3ccccc3)ccc12,> 100,> 100,
COC1CN(C(=O)c2sc3nc(-c4ccccc4)ccc3c2N)C1,> 100,38,
CCC(NC(=O)c1sc2nc(-c3ccc(OC)cc3)cc(C(F)(F)F)c2c1N)c1ccccc1 (stereo not given),0.74,> 100,> 135
Nc1c(C(=O)N2CC(F)(F)C2)sc2nc(-c3ccccc3)ccc12,> 100,38,
COc1ccc(-c2cc(C(F)(F)F)c3c(N)c(C(=O)NCc4ccccc4)sc3n2)cc1,> 100,88,< 1
Nc1c(C(=O)NCc2ccccc2)sc2ncccc12,> 100,> 100,
CCNC(=O)c1sc2nc(-c3ccc(Cl)cc3Cl)cc(C(F)(F)F)c2c1N,> 100,36,
COc1ccc(-c2cc(C(F)(F)F)c3c(N)c(C(=O)N4C5CCCC4COC5)sc3n2)cc1,> 100,42,< 1
COc1ccc(-c2cc(C(F)(F)F)c3c(N)c(C(=O)NC4CC5(C4)CN(C(=O)OC(C)(C)C)C5)sc3n2)cc1,> 100,12,< 1
COc1ccc(-c2cc(C(F)(F)F)c3c(N)c(C(=O)Nc4ccc(C)c(C)c4)sc3n2)cc1,> 100,79,< 1
COc1ccc(-c2cc(C(F)(F)F)c3c(N)c(C(=O)NCCSC)sc3n2)cc1,41,> 100,
CCN(CC)C(=O)c1sc2ncccc2c1N,> 100,> 100,
COc1ccc(-c2cc(C(F)(F)F)c3c(N)c(C(=O)NC4CC4)sc3n2)cc1,> 100,> 100,

SMILES,IC90 [1] [µM],IC50 at 3 days [2] [µM],selectivity ratio [3]
COc1ccc(-c2cc(C(F)(F)F)c3c(N)c(C(=O)N4CC(C)OC(C)C4)sc3n2)cc1 (stereo not given),> 50,44,< 1
COc1ccc(-c2cc(C(F)(F)F)c3c(N)c(C(=O)Nc4cccc(C)c4C)sc3n2)cc1,1.1,44,
Nc1c(C(=O)Nc2cccnc2)sc2nc(-c3ccccc3)cc(C(F)(F)F)c12,> 100,> 100,
COc1ccc(-c2cc(C(F)(F)F)c3c(N)c(C(=O)N4CCC4)sc3n2)cc1,> 100,62,< 1
Nc1c(C(=O)N2CCCC2)sc2nc(-c3ccc4c(c3)OCO4)cc(C(F)(F)F)c12,> 100,> 100,
COCCNC(=O)c1sc2nc(-c3ccc(OC)cc3)cc(C(F)(F)F)c2c1N,> 100,> 100,
Cc1cccc(NC(=O)c2sc3nc(-c4ccc5c(c4)OCO5)cc(C(F)(F)F)c3c2N)c1C,0.94,46,
Nc1c(C(=O)N2CCOCC2)sc2ncccc12,> 100,> 100,
COc1cccc(-c2cc(C(F)(F)F)c3c(N)c(C(=O)Nc4cccc(C)c4C)sc3n2)c1,> 100,52,
Nc1c(C(=O)N2CCOCC2)sc2nc(-c3ccccc3)ccc12,> 100,56,
COc1ccc(-c2cc(C(F)(F)F)c3c(N)c(C(=O)Nc4cc(C)ccc4C)sc3n2)cc1,> 100,23,< 1
COc1ccc(-c2ccc3c(N)c(C(=O)N4CCOCC4)sc3n2)cc1OC,> 100,> 100,
Nc1c(C(=O)NCc2ccc(F)cc2)sc2ncccc12,> 100,> 100,
COc1ccc(-c2ccc3c(N)c(C(=O)N4CCOCC4)sc3n2)cc1,> 100,63,
Nc1c(C(=O)N2CCOCC2)sc2nc(Cl)ccc12,> 100,> 100,
Nc1c(C(=O)NCc2ccccc2)sc2nc(-c3ccccc3)ccc12,> 100,> 100,
Nc1c(C(=O)N2CCOCC2)sc2nc(-c3ccoc3)ccc12,> 100,50,
CN(C)C(=O)c1sc2nc(-c3ccccc3)ccc2c1N,> 100,> 100,
Cc1cccc(NC(=O)c2sc3nc(-c4cccs4)cc(C(F)(F)F)c3c2N)c1,> 100,32,
Cc1cccc(NC(=O)c2sc3nc(-c4cccs4)cc(C(F)(F)F)c3c2N)c1C,> 100,> 100,
Nc1c(C(=O)Nc2ccccc2C(F)(F)F)sc2nc(-c3ccccc3)cc(C(F)(F)F)c12,> 100,97,
COc1ccc(-c2cc(C(F)(F)F)c3c(N)c(C(=O)Nc4cccc(C)c4OC)sc3n2)cc1,> 100,> 100,
Nc1c(C(=O)Nc2ccccc2F)sc2nc(-c3ccccc3)cc(C(F)(F)F)c12,> 100,> 100,
